Reference: patent US20230149333A1, “COMPOSITIONS AND USES OF LOCALLY APPLIED SYNTHETIC AMINO ACID POLYMERS FOR PREVENTION AND TREATMENT OF VIRAL INFECTIONS” (Amicrobe, Inc., priority 2020, published 2023)

Columns and labels:
[1] = tested on: Coronavirus (strain OC43); experiment: Virucidal Suspension Test (In-Vitro Time-Kill method) based upon ASTM E1052-20
Procedure: (§1) The antiviral activities of Composition A and Composition B were evaluated by challenging them with two different viruses, Coronavirus (strain OC43, ZeptoMetrix Corp. #0810024CF) and Influenza A H1N1 (strain A/WS/33, ATCC #VR-1520). A Virucidal Suspension Test (In-Vitro Time-Kill method) based upon the ASTM E1052-20, “Standard Practice to Assess the Activity of Microbicides against Viruses in Suspension” was used. The percent and log10 reductions from the initial populations of the viral strains were determined following exposure to Compositions A and B at two different exposure times (2 minutes and 10 minutes).

[2] = tested on: Influenza A H1N1 (strain A/WS/33); experiment: as above
Procedure: as §1

| Substance | Log10 reduction ([1]; 10 µg/mL, 2 min exposure) [log10] | Percent reduction ([1]; 10 µg/mL, 2 min exposure) [%] | Log10 reduction ([1]; 10 µg/mL, 10 min exposure) [log10] | Percent reduction ([1]; 10 µg/mL, 10 min exposure) [%] | Log10 reduction ([1]; 100 µg/mL, 2 min exposure) [log10] | Percent reduction ([1]; 100 µg/mL, 2 min exposure) [%] | Log10 reduction ([1]; 100 µg/mL, 10 min exposure) [log10] | Percent reduction ([1]; 100 µg/mL, 10 min exposure) [%] | Log10 reduction ([1]; 1000 µg/mL, 2 min exposure) [log10] | Percent reduction ([1]; 1000 µg/mL, 2 min exposure) [%] | Log10 reduction ([1]; 1000 µg/mL, 10 min exposure) [log10] | Percent reduction ([1]; 1000 µg/mL, 10 min exposure) [%] | Log10 reduction ([2]; 10 µg/mL, 2 min exposure) [log10] | Percent reduction ([2]; 10 µg/mL, 2 min exposure) [%] | Log10 reduction ([2]; 10 µg/mL, 10 min exposure) [log10] | Percent reduction ([2]; 10 µg/mL, 10 min exposure) [%] | Log10 reduction ([2]; 100 µg/mL, 2 min exposure) [log10] | Percent reduction ([2]; 100 µg/mL, 2 min exposure) [%] | Log10 reduction ([2]; 100 µg/mL, 10 min exposure) [log10] | Percent reduction ([2]; 100 µg/mL, 10 min exposure) [%] | also measured |
| --- | --- | --- | --- | --- | --- | --- | --- | --- | --- | --- | --- | --- | --- | --- | --- | --- | --- | --- | --- | --- | --- |
| Poly(L-lysine hydrochloride)-b-poly(D,L-leucine) [Composition A] | 0.25 | 43.77 | 0.5 | 68.38 | 0.25 | 43.77 | 0.5 | 68.38 | 0.5 | 68.38 | 1 | 90 | 0.25 | 43.77 | 0.50 | 68.38 | 0.75 | 82.22 | 0.75 | 82.22 | Log10 reduction ([2]; 1000 µg/mL, 2 min exposure): 0.75 log10; Percent reduction ([2]; 1000 µg/mL, 2 min exposure): 82.22%; Log10 reduction ([2]; 1000 µg/mL, 10 min exposure): 0.50 log10; Percent reduction ([2]; 1000 µg/mL, 10 min exposure): 68.38% |
| Poly(L-lysine hydrochloride)-b-poly(L-leucine) [Composition B] | 0.25 | 43.77 | 1 | 90 | 0.75 | 82.22 | 0.75 | 82.22 | 0.5 | 68.38 | 0.75 | 82.22 | 0.75 | 82.22 | 0.75 | 82.22 | 0.50 | 68.38 | 0.50 | 68.38 | Log10 reduction ([2]; 1000 µg/mL, 2 min exposure): 0.00 log10; Percent reduction ([2]; 1000 µg/mL, 2 min exposure): 0.00%; Log10 reduction ([2]; 1000 µg/mL, 10 min exposure): 1.00 log10; Percent reduction ([2]; 1000 µg/mL, 10 min exposure): 90.00% |
